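Five concentrations, 48 hours, 96-well plates. TGI: total growth inhibition.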
Tests used:
Assay in all cases: NCI-60 cell line screen, 48 h
[1] = system: T-47D breast
[2] = system: A498 renal
[3] = system: HS 578T breast
[4] = system: MCF7 breast
[5] = system: HT29 colon
[6] = system: SF-295 CNS
[7] = system: U251 CNS
[8] = system: UACC-257 melanoma
[9] = system: PC-3 prostate
[10] = system: SNB-75 CNS
[11] = system: BT-549 breast
[12] = system: DLD-1 colon
[13] = system: NCI-H226 lung
[14] = system: SR leukemia
[15] = system: LXFL 529 NSCLC
[16] = system: XF 498 CNS
[17] = system: DMS 114 small cell lung
[18] = system: KM20L2 colon
[19] = system: M19-MEL melanoma
[20] = system: DMS 273 small cell lung

SMILES	TGI [1] [µM]	TGI [2] [µM]	TGI [3] [µM]	TGI [4] [µM]	TGI [5] [µM]	TGI [6] [µM]	TGI [7] [µM]	TGI [8] [µM]	TGI [9] [µM]	TGI [10] [µM]	TGI [11] [µM]	TGI [12] [µM]	TGI [13] [µM]	TGI [14] [µM]	TGI [15] [µM]	TGI [16] [µM]	TGI [17] [µM]	TGI [18] [µM]	TGI [19] [µM]	TGI [20] [µM]
O=Nn1c2ccccc2c2cc([N+](=O)[O-])ccc21	> 100	26.9	82.9	58	68	28.5	33.1	56.5	35	19.5	38.3	–	–	–	–	–	–	–	–	–
CC(C)OP(=O)(OC(C)C)C1=NN(c2ccc([N+](=O)[O-])cc2)C(P(=O)(OC(C)C)OC(C)C)=NN1c1ccc([N+](=O)[O-])cc1	–	–	–	–	> 100	–	> 100	–	–	–	–	> 100	> 100	> 100	> 100	> 100	> 100	> 100	> 100	> 100
